# Results from article PMC12203311, “Design, synthesis, in silico and in vitro evaluation of pyrrole–indole hybrids as dual tubulin and aromatase inhibitors with potent anticancer activities” (RSC Advances, 2025).
# Assays:
# MDA-MB-231/ATCC = test: NCI60 five-dose screen; assay type: cell-based; settings: Homo sapiens, breast cancer
# M14 = test: NCI60 five-dose screen; assay type: cell-based; settings: Homo sapiens, M14, melanoma
# NCI-H460 = test: NCI60 five-dose screen; assay type: cell-based; settings: Homo sapiens, NCI-H460, NSC lung cancer
# MOLT-4 = test: NCI60 five-dose screen; assay type: cell-based; settings: Homo sapiens, MOLT-4, leukemia
# NCI-H226 = test: NCI60 five-dose screen; assay type: cell-based; settings: Homo sapiens, NCI-H226, NSC lung cancer
# HCT-15 = test: NCI60 five-dose screen; assay type: cell-based; settings: Homo sapiens, HCT-15, colon cancer
# SNB-19 = test: NCI60 five-dose screen; assay type: cell-based; settings: Homo sapiens, SNB-19, CNS cancer
# NCI/ADR-RES = test: NCI60 five-dose screen; assay type: cell-based, human; settings: Homo sapiens, ovarian cancer
# SW-620 = test: NCI60 five-dose screen; assay type: cell-based; settings: Homo sapiens, SW-620, colon cancer
# OVCAR-8 = test: NCI60 five-dose screen; assay type: cell-based; settings: Homo sapiens, OVCAR-8, ovarian cancer
# OVCAR-4 = test: NCI60 five-dose screen; assay type: cell-based; settings: Homo sapiens, OVCAR-4, ovarian cancer
# NCI-H322M = test: NCI60 five-dose screen; assay type: cell-based; settings: Homo sapiens, NSC lung cancer
# UACC-257 = test: NCI60 five-dose screen; assay type: cell-based; settings: Homo sapiens, UACC-257, melanoma
# A549/ATCC = test: NCI60 five-dose screen; assay type: cell-based; settings: Homo sapiens, NSC lung cancer
# Human CYP19 (aromatase) = target: T1, Human CYP19 (aromatase) (Homo sapiens, UniProt P11511); test: Aromatase inhibition assay (DBF fluorometric substrate); assay type: biochemical; settings: active defined as IC50 < 12.5 µM
# T1 construct: purchased GENTEST, Woburn, MA 456260; host or cells: baculovirus/insect cells
# T1 sequence (P11511 1-503): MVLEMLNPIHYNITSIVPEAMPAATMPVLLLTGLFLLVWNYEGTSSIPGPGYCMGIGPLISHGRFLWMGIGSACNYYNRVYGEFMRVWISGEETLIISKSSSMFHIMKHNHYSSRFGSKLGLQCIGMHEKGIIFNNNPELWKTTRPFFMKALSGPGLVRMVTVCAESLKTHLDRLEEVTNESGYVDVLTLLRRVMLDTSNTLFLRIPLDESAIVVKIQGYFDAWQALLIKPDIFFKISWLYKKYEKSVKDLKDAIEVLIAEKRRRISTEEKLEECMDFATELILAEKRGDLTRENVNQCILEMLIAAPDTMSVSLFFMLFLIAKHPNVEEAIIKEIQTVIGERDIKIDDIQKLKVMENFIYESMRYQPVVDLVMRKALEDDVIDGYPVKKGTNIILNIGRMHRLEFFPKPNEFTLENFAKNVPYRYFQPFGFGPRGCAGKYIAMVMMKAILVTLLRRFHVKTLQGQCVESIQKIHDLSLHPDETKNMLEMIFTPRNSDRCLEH
# How it was run: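 Insect-cell-expressed human CYP19 Supersomes with oxidoreductase turned over DBF for 30 min at 37 °C after a 10 min 37 °C pre-incubation with cofactor. NaOH quench; product measured by fluorescence, excitation 490 nm, emission 530 nm.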
# SK-OV-3 = test: NCI60 five-dose screen; assay type: cell-based; settings: Homo sapiens, SK-OV-3, ovarian cancer
# MDA-MB-435 = test: NCI60 five-dose screen; assay type: cell-based, human; settings: Homo sapiens
# KM12 = test: NCI60 five-dose screen; assay type: cell-based; settings: Homo sapiens, KM12, colon cancer
# MALME-3M = test: NCI60 five-dose screen; assay type: cell-based; settings: Homo sapiens, melanoma
# HS 578T = test: NCI60 five-dose screen; assay type: cell-based; settings: Homo sapiens, breast cancer
# RXF 393 = test: NCI60 five-dose screen; assay type: cell-based; settings: Homo sapiens, RXF 393, renal cancer
# NCI-H522 = test: NCI60 five-dose screen; assay type: cell-based; settings: Homo sapiens, NCI-H522, NSC lung cancer
# DU-145 = test: NCI60 five-dose screen; assay type: cell-based; settings: Homo sapiens, DU-145, prostate cancer
# MCF7 = test: NCI60 five-dose screen; assay type: cell-based; settings: Homo sapiens, MCF7, breast cancer
# SF-539 = test: NCI60 five-dose screen; assay type: cell-based; settings: Homo sapiens, SF-539, CNS cancer
# K-562 = test: NCI60 five-dose screen; assay type: cell-based; settings: Homo sapiens, K562, K-562, leukemia
# EKVX = test: NCI60 five-dose screen; assay type: cell-based; settings: Homo sapiens, NSC lung cancer
# [1] = read-out: LC50 (the source's name)
structure (smiles),measurement,setting,value
"O=C(N/N=C/c1cc([N+](=O)[O-])c[nH]1)c1[nH]c2ccc(Br)cc2c1-c1ccccc1 [Derivative 3q, (E)-5-Bromo-N′-((4-nitro-1H-pyrrol-2-yl)methylene)-3-phenyl-1H-indole-2-carbohydrazide]",GI50,MDA-MB-231/ATCC,17.4 µM
same,CC50,MDA-MB-231/ATCC; [1],> 100 µM
same,GI50,M14,0.574 µM
same,CC50,M14; [1],> 100 µM
same,GI50,NCI-H460,0.328 µM
same,CC50,NCI-H460; [1],> 100 µM
same,GI50,MOLT-4,0.657 µM
same,CC50,MOLT-4; [1],> 100 µM
same,GI50,NCI-H226,3.39 µM
same,CC50,NCI-H226; [1],> 100 µM
same,GI50,HCT-15,0.504 µM
same,CC50,HCT-15; [1],> 100 µM
same,GI50,SNB-19,6.25 µM
same,CC50,SNB-19; [1],> 100 µM
same,GI50,NCI/ADR-RES,0.434 µM
same,CC50,NCI/ADR-RES; [1],> 100 µM
same,GI50,SW-620,0.38 µM
same,CC50,SW-620; [1],> 100 µM
same,GI50,OVCAR-8,10.2 µM
same,CC50,OVCAR-8; [1],> 100 µM
same,GI50,OVCAR-4,1.06 µM
same,CC50,OVCAR-4; [1],> 100 µM
same,GI50,NCI-H322M,46.4 µM
same,CC50,NCI-H322M; [1],> 100 µM
same,GI50,UACC-257,2.58 µM
same,CC50,UACC-257; [1],> 100 µM
same,GI50,A549/ATCC,1.79 µM
same,CC50,A549/ATCC; [1],> 100 µM
same,IC50,Human CYP19 (aromatase),> 12.5 µM
same,aromatase inhibition,Human CYP19 (aromatase),inactive against aromatase
same,GI50,SK-OV-3,3.14 µM
same,CC50,SK-OV-3; [1],> 100 µM
same,CC50,"MDA-MB-435; MDA-MB-435, MDA-MB-435, melanoma, read-out: LC50 (the source's name)",8.78 µM
same,GI50,"MDA-MB-435; MDA-MB-435, melanoma",0.226 µM
same,GI50,KM12,1.39 µM
same,CC50,KM12; [1],> 100 µM
same,GI50,MALME-3M,0.83 µM
same,CC50,MALME-3M; [1],> 100 µM
same,GI50,HS 578T,0.486 µM
same,CC50,HS 578T; [1],> 100 µM
same,GI50,RXF 393,0.734 µM
same,CC50,RXF 393; [1],> 100 µM
same,GI50,NCI-H522,0.722 µM
same,CC50,NCI-H522; [1],> 100 µM
same,GI50,DU-145,3.87 µM
same,CC50,DU-145; [1],> 100 µM
same,GI50,MCF7,0.354 µM
same,CC50,MCF7; [1],> 100 µM
same,GI50,SF-539,0.822 µM
same,CC50,SF-539; [1],> 100 µM
same,GI50,K-562,0.387 µM
same,CC50,K-562; [1],> 100 µM
same,GI50,EKVX,> 100 µM
same,CC50,EKVX; [1],> 100 µM
